Reference: patent US10239840B2, “Benzoazepine derivatives” (ViiV HEALTHCARE UK LIMITED, priority 2015, dated 2019)

The molecules below were run on HIV (assay: MT4 assay, antiviral HIV activity). Conditions: MT-4 cells (HTLV-1 transformed), read-out at 96 hours with cell titer glo.
Format: cell-based
Description: Antiviral HIV activity and cytotoxicity values for compounds of the invention from Table 1 were measured in parallel in the HTLV-1 transformed cell line MT-4 based on the method previously described (Hazen et al., 2007, In vitro antiviral activity of the novel, tyrosyl-based human immunodeficiency virus (HIV) type 1 protease inhibitor brecanavir (GW640385) in combination with other antiretrovirals and against a panel of protease inhibitor-resistant HIV (Hazen et al., “In vitro antiviral activity of the novel, tyrosyl-based human immunodeficiency virus (HIV) type 1 protease inhibitor brecanavir (GW640385) in combination with other antiretrovirals and against a panel of protease inhibitor-resistant HIV”, Antimicrob. Agents Chemother. 2007, 51: 3147-3154; and Pauwels et al., “Sensitive and rapid assay on MT-4 cells for the detection of antiviral compounds against the AIDS virus”, J. of Virological Methods 1987, 16: 171-185).
Luciferase activity was measured 96 hours later by adding a cell titer glo (Promega, Madison, Wis.). Percent inhibition of cell protection data was plotted relative to no compound control. Under the same condition, cytotoxicity of the compounds was determined using cell titer Glo™ (Promega, Madison, Wis.). IC50s were determined from a 10 point dose response curve using 3-4-fold serial dilution for each compound, which spans a concentration range >1000 fold.
These values are plotted against the molar compound concentrations using the standard four parameter logistic equation: y=((Vmax*x^n)/(K^n+x^n)+Y2
Y2=minimum γ n=slope factor
Vmax=maximum γ x=compound concentration [M]

Question: Cc1c(-c2c(C)c3c(c(C)c2[C@H](OC(C)(C)C)C(=O)O)CCN(S(=O)(=O)N2CCCCC2)CC3)cc(F)c2c1CCCO2 (atropisomer, axis not shown; (M)) [Example 21, (2S)-2-(tert-butoxy)-2-((M)-8-(8-fluoro-5-methylchroman-6-yl)-6,9-dimethyl-3-(piperidin-1-ylsulfonyl)-2,3,4,5-tetrahydro-1H-benzo[d]azepin-7-yl)acetic Acid] was tested. Which IC50 did it give?
Answer: 8 nM

Question: Which IC50 does the source give for Cc1c(-c2c(C)c3c(c(C)c2[C@H](OC(C)(C)C)C(=O)O)CCN(Cc2cccc(F)c2)CC3)cc(F)c2c1CCCO2 (atropisomer, axis not shown; (M)) [Example 15, (S)-2-(tert-butoxy)-2-((M)-8-(8-fluoro-5-methylchroman-6-yl)-3-(3-fluorobenzyl)-6,9-dimethyl-2,3,4,5-tetrahydro-1H-benzo[d]azepin-7-yl)acetic Acid] here?
Answer: 77 nM

Question: Which IC50 does the source give for COc1cc(C(=O)N2CCc3c(C)c(-c4cc(F)c5c(c4C)CCCO5)c([C@H](OC(C)(C)C)C(=O)O)c(C)c3CC2)ccc1F (atropisomer, axis not shown; (M)) [Example 13, (S)-2-(tert-butoxy)-2-((M)-3-(4-fluoro-3-methoxybenzoyl)-8-(8-fluoro-5-methylchroman-6-yl)-6,9-dimethyl-2,3,4,5-tetrahydro-1H-benzo[d]azepin-7-yl)acetic Acid] here?
Answer: 4 nM

Question: For COc1ccc(C(=O)N2CCc3c(C)c(-c4cc(F)c5c(c4C)CCCO5)c([C@H](OC(C)(C)C)C(=O)O)c(C)c3CC2)cc1C (atropisomer, axis not shown; (M)) [Example 9, (S)-2-(tert-butoxy)-2-((M)-8-(8-fluoro-5-methylchroman-6-yl)-3-(4-methoxy-3-methylbenzoyl)-6,9-dimethyl-2,3,4,5-tetrahydro-1H-benzo[d]azepin-7-yl)acetic Acid], which IC50 is on record?
Answer: 14 nM

Question: Which IC50 does the source give for Cc1c(-c2c(C)c3c(c(C)c2[C@H](OC(C)(C)C)C(=O)O)CCN(c2ccccc2)CC3)cc(F)c2c1CCCO2 (atropisomer, axis not shown; (M)) [Example 19, (2S)-2-(tert-butoxy)-2-((M)-8-(8-fluoro-5-methylchroman-6-yl)-6,9-dimethyl-3-phenyl-2,3,4,5-tetrahydro-1H-benzo[d]azepin-7-yl)acetic Acid] here?
Answer: 92 nM

Question: COc1ccc(C)cc1C(=O)N1CCc2c(C)c(-c3cc(F)c4c(c3C)CCCO4)c([C@H](OC(C)(C)C)C(=O)O)c(C)c2CC1 (atropisomer, axis not shown; (M)) [Example 8, (S)-2-(tert-butoxy)-2-((M)-8-(8-fluoro-5-methylchroman-6-yl)-3-(2-methoxy-5-methylbenzoyl)-6,9-dimethyl-2,3,4,5-tetrahydro-1H-benzo[d]azepin-7-yl)acetic Acid] was tested. Which IC50 did it give?
Answer: 4 nM

Question: How did the IC50 turn out when Cc1ccc(-c2c(C)c3c(c(C)c2[C@H](OC(C)(C)C)C(=O)O)CCN(C(=O)c2cccc(F)c2)CC3)cc1 [Example 4, (S)-2-(tert-butoxy)-2-(3-(3-fluorobenzoyl)-6,9-dimethyl-8-(p-tolyl)-2,3,4,5-tetrahydro-1H-benzo[d]azepin-7-yl)acetic Acid] was run?
Answer: 34 nM

Question: Cc1c(-c2c(C)c3c(c(C)c2[C@H](OC(C)(C)C)C(=O)O)CCN(C(=O)CC(C)(C)C)CC3)cc(F)c2c1CCCO2 (atropisomer, axis not shown; (M)) [Example 6, (S)-2-(tert-butoxy)-2-((M)-3-(3,3-dimethylbutanoyl)-8-(8-fluoro-5-methylchroman-6-yl)-6,9-dimethyl-2,3,4,5-tetrahydro-1H-benzo[d]azepin-7-yl)acetic Acid] was tested. Which IC50 did it give?
Answer: 60 nM

Question: For Cc1c(-c2c(C)c3c(c(C)c2[C@H](OC(C)(C)C)C(=O)O)CCN(C(=O)c2cccc(F)c2)CC3)cc(Cl)c2c1CCCO2 (atropisomer, axis not shown; (M)) [Example 1, (S)-2-(tert-butoxy)-2-((M)-8-(8-chloro-5-methylchroman-6-yl)-3-(3-fluorobenzoyl)-6,9-dimethyl-2,3,4,5-tetrahydro-1H-benzo[d]azepin-7-yl)acetic Acid], which IC50 is on record?
Answer: 27 nM
